According to ChEMBL document CHEMBL1201862, “PubChem BioAssay data set” (2004):
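Briefly, cells in 96-well plates were exposed to five compound concentrations for 48 h, and endpoints were estimated by linear interpolation. Abbreviation: GI50, concentration required for 50% inhibition of growth.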 Calls of active or inactive are those of the source. No stated cut-off is given here; in the data, active = GI50 up to about 1.1 µM and inactive = higher.

Columns and labels:
Assay in all cases: NCI-60 cell line screen, 48 h
[1] = system: MCF7
[2] = system: NCI/ADR-RES
[3] = system: NCI-H23
[4] = system: KM12
[5] = system: SW-620
[6] = system: SF-539
[7] = system: SK-MEL-5
[8] = system: DU-145
[9] = system: SF-295
[10] = system: CAKI-1
[11] = system: HCC 2998
[12] = system: MDA-MB-435
[13] = system: ACHN
[14] = system: UACC-257
[15] = system: SF-268
[16] = system: NCI-H226
[17] = system: HCT-15
[18] = system: IGROV-1
[19] = system: RPMI-8226
[20] = system: NCI-H522

SMILES: COCn1cc(C2=C(C)C(=O)C(C)=C(C)C2=O)cn1
- GI50 [1]: > 100 µM (inactive)
- GI50 [2]: 26.2 µM (inactive)
- GI50 [3]: > 100 µM (inactive)
- GI50 [4]: > 100 µM (inactive)
- GI50 [5]: > 100 µM (inactive)
- GI50 [6]: > 100 µM (inactive)
- GI50 [7]: 38.1 µM (inactive)
- GI50 [8]: > 100 µM (inactive)
- GI50 [9]: > 100 µM (inactive)
- GI50 [10]: > 100 µM (inactive)
- GI50 [11]: > 100 µM (inactive)
- GI50 [12]: 19.6 µM (inactive)
- GI50 [13]: 85.9 µM (inactive)
- GI50 [14]: 85.5 µM (inactive)
- GI50 [15]: 25.4 µM (inactive)
- GI50 [16]: > 100 µM (inactive)
- GI50 [17]: > 100 µM
- GI50 [18]: > 100 µM (inactive)
- GI50 [19]: 27.9 µM (inactive)

SMILES: N#CSC#CCCC#CSC#N
- GI50 [1]: 20.7 µM (inactive)
- GI50 [2]: 28.2 µM (inactive)
- GI50 [3]: 20.6 µM (inactive)
- GI50 [4]: 17.7 µM (inactive)
- GI50 [5]: 14.2 µM (inactive)
- GI50 [6]: 19.5 µM (inactive)
- GI50 [20]: 2.2 µM (inactive)
- GI50 [7]: 18.2 µM (inactive)
- GI50 [8]: 15 µM (inactive)
- GI50 [9]: 18.3 µM (inactive)
- GI50 [10]: 19 µM (inactive)
- GI50 [11]: 17.5 µM (inactive)
- GI50 [12]: 23 µM (inactive)
- GI50 [13]: 17.5 µM (inactive)
- GI50 [14]: 16.9 µM (inactive)
- GI50 [15]: 30.1 µM (inactive)
- GI50 [16]: 25.1 µM (inactive)
- GI50 [17]: 18.2 µM
- GI50 [18]: 20.3 µM (inactive)

SMILES: N#CCc1nc(C#N)c(N)o1
- GI50 [1]: > 100 µM (inactive)
- GI50 [2]: > 100 µM (inactive)
- GI50 [3]: > 100 µM (inactive)
- GI50 [4]: > 100 µM (inactive)
- GI50 [5]: > 100 µM (inactive)
- GI50 [6]: > 100 µM (inactive)
- GI50 [20]: > 100 µM (inactive)
- GI50 [8]: > 100 µM (inactive)
- GI50 [9]: > 100 µM (inactive)
- GI50 [10]: > 100 µM (inactive)
- GI50 [11]: > 100 µM (inactive)
- GI50 [12]: > 100 µM (inactive)
- GI50 [13]: > 100 µM (inactive)
- GI50 [14]: > 100 µM (inactive)
- GI50 [15]: > 100 µM (inactive)
- GI50 [16]: > 100 µM (inactive)
- GI50 [17]: > 100 µM
- GI50 [18]: > 100 µM (inactive)

SMILES: C=CCOC1(CC=C)C(=O)OC2C(O)COC21O (configuration not stated)
- GI50 [1]: > 100 µM (inactive)
- GI50 [2]: > 100 µM (inactive)
- GI50 [3]: > 100 µM (inactive)
- GI50 [4]: > 100 µM (inactive)
- GI50 [5]: > 100 µM (inactive)
- GI50 [6]: > 100 µM (inactive)
- GI50 [20]: > 100 µM (inactive)
- GI50 [7]: > 100 µM (inactive)
- GI50 [8]: > 100 µM (inactive)
- GI50 [9]: > 100 µM (inactive)
- GI50 [10]: > 100 µM (inactive)
- GI50 [11]: > 100 µM (inactive)
- GI50 [12]: > 100 µM (inactive)
- GI50 [13]: > 100 µM (inactive)
- GI50 [14]: > 100 µM (inactive)
- GI50 [15]: > 100 µM (inactive)
- GI50 [16]: > 100 µM (inactive)
- GI50 [17]: > 100 µM
- GI50 [18]: > 100 µM (inactive)

SMILES: O=Cc1cc2c(cc1-c1c(C=O)ccc3c1OCO3)OCO2
- GI50 [1]: > 10 µM (inactive)
- GI50 [2]: > 10 µM (inactive)
- GI50 [3]: > 10 µM (inactive)
- GI50 [4]: > 10 µM (inactive)
- GI50 [5]: > 10 µM (inactive)
- GI50 [6]: > 10 µM (inactive)
- GI50 [7]: > 10 µM (inactive)
- GI50 [8]: > 10 µM (inactive)
- GI50 [9]: > 10 µM (inactive)
- GI50 [10]: > 10 µM (inactive)
- GI50 [11]: > 10 µM (inactive)
- GI50 [12]: > 10 µM (inactive)
- GI50 [13]: > 10 µM (inactive)
- GI50 [14]: > 10 µM (inactive)
- GI50 [15]: > 10 µM (inactive)
- GI50 [17]: > 10 µM
- GI50 [18]: > 10 µM (inactive)
- GI50 [19]: > 10 µM (inactive)

SMILES: CNC1=CC(=O)C2=C(C1=O)[C@H]1CC[C@]3(C)C(=O)CC[C@H]3[C@@H]1CC2
- GI50 [1]: 20.2 µM (inactive)
- GI50 [2]: 13 µM (inactive)
- GI50 [3]: 5.13 µM (inactive)
- GI50 [4]: 7.43 µM (inactive)
- GI50 [5]: 22.9 µM (inactive)
- GI50 [6]: 18.4 µM (inactive)
- GI50 [7]: 8.18 µM (inactive)
- GI50 [8]: 15 µM (inactive)
- GI50 [9]: 15.3 µM (inactive)
- GI50 [10]: 13.6 µM (inactive)
- GI50 [11]: 16 µM (inactive)
- GI50 [12]: 5.66 µM (inactive)
- GI50 [13]: 21.6 µM (inactive)
- GI50 [14]: 13.2 µM (inactive)
- GI50 [16]: 12.4 µM (inactive)
- GI50 [17]: 12.4 µM
- GI50 [18]: 5.43 µM (inactive)
- GI50 [19]: 17.3 µM (inactive)

SMILES: Cc1c2ccccc2c(/C=N/NC(=O)CSCC(=O)N/N=C/c2c3ccccc3c(C)c3ccccc23)c2ccccc12
- GI50 [1]: 23 µM (inactive)
- GI50 [2]: > 63.5 µM (inactive)
- GI50 [3]: 11.4 µM (inactive)
- GI50 [4]: > 56.4 µM (inactive)
- GI50 [5]: > 57.4 µM (inactive)
- GI50 [6]: 18.1 µM (inactive)
- GI50 [7]: 54.7 µM (inactive)
- GI50 [8]: > 55.8 µM (inactive)
- GI50 [9]: 16 µM (inactive)
- GI50 [10]: > 67.1 µM (inactive)
- GI50 [11]: 18.3 µM (inactive)
- GI50 [12]: > 79.6 µM (inactive)
- GI50 [13]: > 47.8 µM (inactive)
- GI50 [14]: 31.6 µM (inactive)
- GI50 [15]: 23.8 µM (inactive)
- GI50 [16]: > 44.7 µM (inactive)
- GI50 [17]: > 100 µM
- GI50 [18]: > 100 µM (inactive)
- GI50 [19]: 17.2 µM (inactive)

SMILES: C=CCN1C(=O)/C(=C/c2ccccc2)N=C1SC1OC(COC(C)=O)C(OC(C)=O)C(OC(C)=O)C1OC(C)=O (configuration not stated)
- GI50 [1]: 28.5 µM (inactive)
- GI50 [2]: 26.2 µM (inactive)
- GI50 [3]: 24.9 µM (inactive)
- GI50 [4]: 39.9 µM (inactive)
- GI50 [5]: 28.5 µM (inactive)
- GI50 [20]: 16.3 µM (inactive)
- GI50 [8]: 26.6 µM (inactive)
- GI50 [9]: 50.1 µM (inactive)
- GI50 [10]: 16.3 µM (inactive)
- GI50 [11]: 49.7 µM (inactive)
- GI50 [12]: 26.9 µM (inactive)
- GI50 [13]: 22.9 µM (inactive)
- GI50 [14]: 27.9 µM (inactive)
- GI50 [15]: 21.4 µM (inactive)
- GI50 [17]: 28.1 µM
- GI50 [18]: 28.3 µM (inactive)
- GI50 [19]: 24.4 µM (inactive)

SMILES: Cn1c(=O)c2nc(/N=N/Nc3nncs3)[nH]c2n(C)c1=O
- GI50 [1]: > 100 µM (inactive)
- GI50 [2]: > 100 µM (inactive)
- GI50 [3]: > 100 µM (inactive)
- GI50 [4]: > 100 µM (inactive)
- GI50 [5]: > 100 µM (inactive)
- GI50 [6]: > 100 µM (inactive)
- GI50 [7]: > 100 µM (inactive)
- GI50 [8]: > 100 µM (inactive)
- GI50 [9]: > 100 µM (inactive)
- GI50 [10]: > 100 µM (inactive)
- GI50 [11]: > 100 µM (inactive)
- GI50 [12]: > 100 µM (inactive)
- GI50 [13]: > 100 µM (inactive)
- GI50 [14]: > 100 µM (inactive)
- GI50 [15]: > 100 µM (inactive)
- GI50 [17]: > 100 µM
- GI50 [18]: > 100 µM (inactive)

SMILES: Cc1cc(C)c(S(=O)(=O)N[C@@H](/C=C(\Br)CO)C(C)C)c(C)c1
- GI50 [1]: 19.6 µM (inactive)
- GI50 [2]: 36.5 µM (inactive)
- GI50 [3]: 33 µM (inactive)
- GI50 [4]: 33.6 µM (inactive)
- GI50 [5]: 27 µM (inactive)
- GI50 [6]: 31.8 µM (inactive)
- GI50 [20]: 17.7 µM (inactive)
- GI50 [7]: 15.8 µM (inactive)
- GI50 [8]: 34.5 µM (inactive)
- GI50 [9]: 30.2 µM (inactive)
- GI50 [10]: 33.2 µM (inactive)
- GI50 [11]: 24.5 µM (inactive)
- GI50 [12]: 17.3 µM (inactive)
- GI50 [13]: 30.4 µM (inactive)
- GI50 [14]: 21.5 µM (inactive)
- GI50 [15]: 30.7 µM (inactive)
- GI50 [17]: 37.8 µM
- GI50 [18]: 29.9 µM (inactive)
- GI50 [19]: 21.6 µM (inactive)

SMILES: Cc1nn(C(=O)c2ccncc2)c2c1C(c1ccc(Cl)cc1)SC(=N)N2 (configuration not stated)
- GI50 [1]: > 10 µM (inactive)
- GI50 [2]: > 10 µM (inactive)
- GI50 [3]: > 10 µM (inactive)
- GI50 [4]: > 10 µM (inactive)
- GI50 [5]: > 10 µM (inactive)
- GI50 [6]: > 10 µM (inactive)
- GI50 [7]: > 10 µM (inactive)
- GI50 [8]: > 10 µM (inactive)
- GI50 [9]: > 10 µM (inactive)
- GI50 [10]: > 10 µM (inactive)
- GI50 [11]: > 10 µM (inactive)
- GI50 [12]: > 10 µM (inactive)
- GI50 [13]: > 10 µM (inactive)
- GI50 [14]: > 10 µM (inactive)
- GI50 [15]: > 10 µM (inactive)
- GI50 [16]: > 10 µM (inactive)
- GI50 [17]: > 10 µM
- GI50 [18]: > 10 µM (inactive)
- GI50 [19]: > 10 µM (inactive)
